We go through one molecule from US12661308B2, “Antimicrobial AZO compounds and uses thereof” (The Regents Of The University Of Colorado, A Body Corporate, priority 2019, dated 2026).

Each structure is given as a SMILES string. “Also recorded” adds a separate entry of the source.

The test system of data set [1] is S. oralis (ATCC 9811) biofilm. As to the kind of experiment: Biofilm growth study, S. oralis. Type of data set: cell-based, Streptococcus oralis. The note with it: 50 mg/mL coated substrate, 24 h time-period. On the procedure: S. oralis and A. actinomycetemcomitans were streaked on a BHI agar plate and incubated at 37° C. and 5% CO2 for 48 h. An isolated colony was inoculated in 5 mL BHI media for 12 h under the same incubation conditions, followed by a 1:10 dilution in BHI media in a 96-well plate containing the substrates of interest. […]
(§1) Following biofilm growth in the 96-well plate, the substrates were aseptically removed from the 96-well plate and placed in a vial containing 5 mL of 1× PBS solution. The vials were sonicated in a water bath for 10 min at 45° C., and the wells that previously contained the substrates were briefly sonicated using a probe sonicator (3 W RMS output) for 10 s per well. 200 μL aliquots of the sonicated PBS solution were placed in a 96-well plate and diluted 1:10 in each subsequent row. 20 μL aliquots of the sonicated media wells were placed in a 96-well plate containing 180 μL of PBS solution and diluted 1:10 in each subsequent row. Each column was then plated at a volume of 10 μL on a BHI agar plate in triplicate. The plates were then incubated at 37° C. and 5% CO2 for 48 h. The CFUs on each plate were counted in order to quantify the amount of biofilm remaining on the surface of the substrate and the bacteria remaining in the media after the removal of the substrate using the following equations: […]

The test system of data set [2] is S. pneumoniae (Pneumonococcus, Pn). Description: Growth study, S. pneumoniae. Type of data set: cell-based, Streptococcus pneumoniae. The note with it: 50 mg/ML coated substrates, BHI media, 24 h time-period. Here is the method:
(§2) A single bacterial colony was inoculated in 4 mL BHI media. The colony was grown to mid-log phase (to approximately OD600=0.4), statically at 37° C., which for was approximately 4 hours for the S. agalactiae GBS, approximately 11 hours for the S. pyogenes GAS, and approximately 6 hours for the S. pneumaoniae. They were diluted 1:5 in 80% glycerol (in water) solution (4 parts culture, 1 part glycerol, for a final glycerol concentration of 16%). In a 96-well plate, each was diluted to 1:100 resulting in a final concentration of 1×10^6 CFU/mL and grown at 37° C. with 5% CO2.

Data set [3] deals with L929 mouse epithelial cells. As to the kind of experiment: MTT cytotoxicity of coated substrates (Example 3). Type of data set: cell-based. The note with it: 0.5 mg/mL and 50 mg/mL coated substrates, cells grown 100 hr, relative to uncoated sample and negative control. Here is the method:
In this Example, the cytotoxicity of polymeric substrates coated with 0.5 mg/mL OH-AAZO and 50 mg/mL OH-AAZO in the manner described in Example 1 were tested using L929 mouse epithelial cells. The following six samples were prepared: polymeric substrate coated with 50 mg/mL OH-AAZO, polymeric substrate coated with 0.5 mg/mL OH-AAZO, uncoated polymeric substrate, positive control, negative control, and an empty well. All coatings were spin coated. All samples were run in triplicate.
The cells were grown on substrates for 100 hr with media replacement when necessary. L929 conditions: Passage 3. Initial concentration of cells: 1.67×10^4 cells/mL.
Methods and assumptions: • Wells containing MTT product were analyzed at 570 nm. • OD570 values were corrected based on OD570 values of wells containing MTT product+other reagents only (no cells). • Assumes 100% cell death (i.e., 0% cell viability) in these positive control wells. • Negative control (−) wells contained cells grown with no substrate. • Assumes all cell death occurred naturally.
Cell viability was calculated using the following equation: […]

Data set [4] concerns S. mutans (ATCC 25175) biofilm. Description: S. mutans biofilm growth study by CFU count on coated and bulk substrates (Example 4). Type of data set: cell-based, Streptococcus mutans. On the procedure: Coating formulations of OH-AAZO were prepared in THF, all others were prepared in DMF. The THF volume was kept constant (1 mL) and the mass of OH-AAZO monomer was varied to attain the desired concentration. In addition to the OH-AAZO monomer, the coating also consisted of AIBN (2 wt. % relative to the mass of the monomer), and Rhodamine B (0.2 wt. % relative to the mass of the monomer).
Once cured, the MMA:TEGDMA:PMMA base polymers were placed into a mount on a square glass microscope slide. 3 μL of the coating formulation was added via pipette to one side of the substrate and spin coated (1000 rpm for 1 min, 6000 rpm for 3 min), then the process was repeated on the other side. Once both sides were coated, they were placed in an oven for 3 h at 100° C., then under vacuum for an additional 0.5 h.
Bulk OH-AAZO formulations were prepared using the acrylic base polymer method with the addition of the appropriate weight percentage of OH-AAZO (relative to the total mass of the formulation) and AIBN (rather than camphorquinone/amine, 2 wt. %). The components were stirred at room temperature until completely dissolved. The formulations were pipetted into the rubber spacer and cured for 1 h at 100° C. Conversion rates were observed via FT-IR.
Following curing, residual monomer was aqueously extracted by autoclaving (20 psi, 128° C.) for 1 h in MilliQ water (approx. 5 mL water per substrate). The MilliQ water was replaced with fresh water (approx. 5 mL water per substrate) and placed in an 80° C. oven for 2 h. The substrates were blotted dry and analyzed via UV-Vis spectroscopy to confirm the relative amount of the coating (FIG. 9). All coated and bulk substrates were autoclaved prior to their use with both mammalian and bacterial cells.
S. mutans biofilms were grown from a 24 h BHI liquid culture inoculated with an isolated S. mutans colony. The liquid culture was diluted 1:50 in BHI media containing 1 wt. % sucrose in each well in a 96-well plate containing a substrate of interest. The plate was incubated in the dark at 37° C. and 5% CO2 for the necessary amount of time (t=24 h, 48 h, 72 h, depending on the experiment).
as §1

For data set [5], the system named is S. pyogenes (Group A strep, GAS). As to the kind of experiment: Growth study, S. pyogenes (Group A strep). Format: cell-based, Streptococcus pyogenes. As to conditions: 50 mg/ML coated substrates, BHI media, 24 h time-period. Here is the method: as §2

Take `C=CC(=O)Oc1ccccc1/N=N/c1ccccc1O` [OH-AAZO, phenolic acrylated azobenzene]: in data set [1], the “S. oralis growth on coated substrate and in media” value is on record as “did not grow on the coated substrate nor in the media; also recorded: antibacterial effect was only observed”. In addition, the “S. pneumoniae growth on coated substrate and in media” value in data set [2] was “did not grow on the coated substrate nor in the media”. In data set [3], the “cytotoxicity (cell viability, MTT)” value is on record as “non-cytotoxic; also recorded: does not contribute significantly to cytotoxicity”. Besides, the “CFUs of S. mutans biofilm on substrate” value in data set [4] (5 mg/mL coating solution, 24 h) is given as “approximately 1.0×10^8 CFUs”. The “difference in CFUs between coated and uncoated substrates” value in data set [4] (5 mg/mL coating solution, 24 h) is “no significant difference”. The “reduction in CFUs of S. mutans biofilm relative to the uncoated control” value in data set [4] (25 mg/mL coating solution, 24 h) is listed as 4 log. Also, the “sterility of the substrate (sonication CFU)” value in data set [4] (50 mg/mL coated substrates, over 72 h) is on record as “maintained sterility”. In addition, the “bacterial growth in the media surrounding the substrate” value in data set [4] (50 mg/mL coated substrates, t=48 h and 72 h) is “Some media bacterial growth was observed”. Also, the “bacterial growth in the surrounding media” value was “absent” in data set [4] (50 mg/ml coated substrate, 24 h) and “absent” in data set [4] (100 mg/ml coated substrate, 24 h). For the same molecule, the “CFUs of S. mutans biofilm on substrate surface” value in data set [4] (100 mg/mL coating solution, 24 h) is listed as “no observable CFUs”. The “CFUs of S. mutans on surface and in surrounding media” value in data set [4] (1.5 wt. % OH-AAZO bulk bisGMA:TEGDMA substrate, 24 h) is on record as “no observable CFUs; also recorded: maintained sterility”; in data set [4] (2 wt. % OH-AAZO bulk bisGMA:TEGDMA substrate, 24 h), “no observable CFUs; also recorded: maintained sterility”. In data set [4] (sucrose-dependent conditions), the “prevention of growth of an S. mutans biofilm” value is listed as “shown to prevent the growth”. The “S. pyogenes growth on coated substrate and in media” value in data set [5] is on record as “did not grow on the coated substrate nor in the media”.
